Data published in a compilation of properties of binary mixtures (doi:10.1007/s10953-017-0695-7).

Test: xn = mol fraction of the nth substance listed
Conditions: 101 kPa

CCCCCO + CCCCCC[n+]1ccn(C)c1.[Cl-]
x1 = 1
Conditions | viscosity [mPa·s]
293.15 K | 3.99
313.15 K | 2.29
323.15 K | 1.79
333.15 K | 1.39

OCCO + CCCCCC[n+]1ccn(C)c1.[Cl-]
x1 = 1
Conditions | viscosity [mPa·s]
293.15 K | 21.35
303.15 K | 14.1
313.15 K | 9.74
323.15 K | 7.02
333.15 K | 5.2

CCCCCC[n+]1ccn(C)c1.[Cl-] + CCCCCO
viscosity [mPa·s]
Conditions | 293.15 K | 303.15 K | 313.15 K | 323.15 K | 333.15 K
x1 = 0.0042 | 4.14 | – | – | 1.85 | 1.46
x1 = 0.0088 | – | 3.23 | 2.49 | 1.92 | 1.54
x1 = 0.0166 | 4.56 | – | 2.62 | 2.03 | 1.61
x2 = 0 | 11400 | 4206 | 1718 | – | 398
x2 = 0.1514 | 3550 | – | 803 | 418 | 192.5
x2 = 0.2971 | 1014 | 491 | – | 148.2 | 91
x2 = 0.5018 | 182.4 | 108.3 | 68.1 | 44.92 | 31.33
x2 = 0.6066 | 75.1 | 48.8 | 32.87 | 23.14 | 16.9
x2 = 0.7018 | 31.71 | 22.14 | 16.01 | 11.88 | –
x2 = 0.8012 | 14.74 | 10.86 | – | – | 4.99
x2 = 0.849 | – | 7.85 | 6.03 | 4.68 | 3.76
x2 = 0.8825 | 8.5 | 6.37 | 4.92 | 3.87 | 3.06
x2 = 0.9494 | 5.73 | 4.29 | 3.28 | 2.56 | 2.02
x2 = 0.9749 | 4.83 | 3.63 | 2.81 | 2.17 | 1.71

CCCCCC[n+]1ccn(C)c1.[Cl-] + OCCO
viscosity [mPa·s]
Conditions | 293.15 K | 303.15 K | 313.15 K | 323.15 K | 333.15 K
x1 = 0.003 | – | 14.18 | 9.77 | 7.07 | 5.21
x1 = 0.0061 | 21.52 | 14.23 | 9.86 | – | –
x1 = 0.0124 | 21.64 | 14.24 | 9.94 | 7.17 | 5.33
x1 = 0.0188 | 21.81 | – | – | 7.24 | 5.4
x2 = 0 | 11400 | – | 1718 | – | 398
x2 = 0.1526 | 3449 | 861 | 629 | 326 | –
x2 = 0.3167 | 774 | 385 | 214.7 | 127.1 | 79.6
x2 = 0.3999 | 387 | 210.7 | 124.2 | 77.3 | 51.2
x2 = 0.4977 | – | 102.8 | 65.1 | 42.5 | –
x2 = 0.6002 | – | 53 | 35.51 | – | 18.06
x2 = 0.6987 | 46.8 | 30.76 | – | – | –
x2 = 0.8026 | 29.46 | 19.81 | 13.95 | 10.18 | 7.71
x2 = 0.8897 | 24.2 | 16.2 | – | 8.37 | 6.32
x2 = 0.8998 | 23.77 | 16.02 | 11.25 | – | 6.18
x2 = 0.9152 | 23.12 | 15.52 | 10.98 | 7.98 | 6
x2 = 0.931 | 22.64 | 15.24 | 10.67 | 7.73 | 5.82
x2 = 0.9532 | 22.13 | 14.78 | 10.37 | 7.51 | –
x2 = 0.9642 | 22.02 | 14.71 | – | – | 5.53
x2 = 0.9761 | 21.83 | 14.45 | – | 7.27 | 5.46
